Source: PubChem BioAssay AID256 (DTP/NCI, 2004)
Inconclusive results and toxic doses are left out. How the source made its calls: active means survival T/C of 150% or more; inactive means T/C below 125% in these data.

Tested on: CD2F1 mice, L1210 leukemia ip, survival T/C
Experiment: NCI In Vivo Anticancer Drug Screen. Data for tumor model L1210 Leukemia (intraperitoneal) in CD2F1 (CDF1) mice
Settings: endpoint: mean survival time, higher = longer survival
How it was run: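 Antitumor effect is scored in animals hosting a serially transplanted tumor. Values compare compound-dosed animals against vehicle-only controls as a simple quotient.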

[1] = dose: 50.0 mg/kg/injection, schedule: Q01DX009 (ip), vehicle: Klucel (hydroxypropylcellulose) (HPC)
[2] = dose: 100.0 mg/kg/injection, schedule: Q01DX009 (ip), vehicle: Klucel (hydroxypropylcellulose) (HPC)
[3] = dose: 50.0 mg/kg/injection, schedule: Q01DX009 (ip), vehicle: saline with Tween-80
[4] = dose: 100.0 mg/kg/injection, schedule: Q01DX009 (ip), vehicle: saline with Tween-80
[5] = dose: 100.0 mg/kg/injection, schedule: Q04DX003 (ip), vehicle: saline with Tween-80
[6] = dose: 200.0 mg/kg/injection, schedule: Q01DX009 (ip), vehicle: saline with Tween-80
[7] = dose: 200.0 mg/kg/injection, schedule: Q04DX003 (ip), vehicle: saline with Tween-80
[8] = dose: 50.0 mg/kg/injection, schedule: Q04DX002 (ip), vehicle: saline with Tween-80
[9] = dose: 100.0 mg/kg/injection, schedule: Q04DX003 (ip), vehicle: saline

Measured: T/C

O=C(/C=C(\CN1CCCCC1)c1ccccc1)c1ccccc1
inactive: dose: 25.0 mg/kg/injection, schedule: Q01DX009 (ip), vehicle: Klucel (hydroxypropylcellulose) (HPC) 95 % of control | [1] 105 % of control | [2] 94 % of control

CN(C)/N=N/c1[nH]cnc1C(N)=O.[Cl][Cu][Cl]
inactive: dose: 1.56 mg/kg/injection, schedule: Q04DX003 (ip), vehicle: water 97 % of control | dose: 2.0 mg/kg/injection, schedule: Q01DX001 (ip), vehicle: distilled water + Tween-80 96 % of control | dose: 3.13 mg/kg/injection, schedule: Q04DX003 (ip), vehicle: water 106 % of control | dose: 4.0 mg/kg/injection, schedule: Q01DX001 (ip), vehicle: distilled water + Tween-80 94 % of control | dose: 6.25 mg/kg/injection, schedule: Q04DX003 (ip), vehicle: water 95 % of control | dose: 8.0 mg/kg/injection, schedule: Q01DX001 (ip), vehicle: distilled water + Tween-80 99 % of control | dose: 12.5 mg/kg/injection, schedule: Q04DX003 (ip), vehicle: water 94 % of control | dose: 16.0 mg/kg/injection, schedule: Q01DX001 (ip), vehicle: distilled water + Tween-80 88 % of control | dose: 32.0 mg/kg/injection, schedule: Q01DX001 (ip), vehicle: distilled water + Tween-80 92 % of control

O=CNc1cc2ccccc2c2ccc3ccccc3c12
inactive: [3] 94 % of control | [4] 94 % of control | [5] 89 % of control | [6] 97 % of control | [7] 89 % of control

CCCCCCOS(=O)OC(C)C(Cl)C(=O)OCC (stereo not drawn)
inactive: [4] 97 % of control | [6] 97 % of control | dose: 400.0 mg/kg/injection, schedule: Q01DX009 (ip), vehicle: saline with Tween-80 100 % of control

COc1ccc(OC)c(C=C(C(C)=O)C(C)=O)c1
inactive: dose: 12.5 mg/kg/injection, schedule: Q01DX009 (ip), vehicle: water 95 % of control | dose: 25.0 mg/kg/injection, schedule: Q01DX009 (ip), vehicle: water 102 % of control | dose: 50.0 mg/kg/injection, schedule: Q01DX009 (ip), vehicle: water 100 % of control | dose: 100.0 mg/kg/injection, schedule: Q01DX009 (ip), vehicle: water 95 % of control | dose: 200.0 mg/kg/injection, schedule: Q01DX009 (ip), vehicle: water 88 % of control

CCOC(=O)C1=C(C)NC(C)=C(C(=O)OCC)C1c1ccccn1
inactive: [1] 94 % of control | [2] 91 % of control | dose: 200.0 mg/kg/injection, schedule: Q01DX009 (ip), vehicle: Klucel (hydroxypropylcellulose) (HPC) 89 % of control

COc1cc(Cl)ccc1NC(=O)Nc1ccc(CCO)cc1
inactive: [3] 93 % of control | [4] 93 % of control

OC1(c2c(F)c(F)c(F)c(F)c2F)C2CCC1CC2 (stereo not drawn)
inactive: dose: 37.5 mg/kg/injection, schedule: Q04DX002 (ip), vehicle: saline with Tween-80 98 % of control | dose: 75.0 mg/kg/injection, schedule: Q04DX002 (ip), vehicle: saline with Tween-80 110 % of control | dose: 150.0 mg/kg/injection, schedule: Q04DX002 (ip), vehicle: saline with Tween-80 98 % of control | dose: 300.0 mg/kg/injection, schedule: Q04DX002 (ip), vehicle: saline with Tween-80 102 % of control

NCCC(O)C(=O)NC1CC(N)C(OC2OC(CN)C(O)C(O)C2N)C(OC2OC(CO)C(O)C2O)C1O (stereo not drawn)
inactive: [8] 100 % of control | dose: 50.0 mg/kg/injection, schedule: Q04DX002 (ip), vehicle: saline 98 % of control | dose: 100.0 mg/kg/injection, schedule: Q04DX002 (ip), vehicle: saline with Tween-80 100 % of control | dose: 100.0 mg/kg/injection, schedule: Q04DX002 (ip), vehicle: saline 98 % of control | dose: 200.0 mg/kg/injection, schedule: Q04DX002 (ip), vehicle: saline with Tween-80 96 % of control | dose: 200.0 mg/kg/injection, schedule: Q04DX002 (ip), vehicle: saline 95 % of control | dose: 400.0 mg/kg/injection, schedule: Q04DX002 (ip), vehicle: saline with Tween-80 96 % of control | dose: 400.0 mg/kg/injection, schedule: Q04DX002 (ip), vehicle: saline 98 % of control

CS(=O)(=O)c1cc([N+](=O)[O-])cc([N+](=O)[O-])c1Cl
inactive: dose: 2.5 mg/kg/injection, schedule: Q01DX009 (ip), vehicle: saline with Tween-80 95 % of control | dose: 5.0 mg/kg/injection, schedule: Q01DX009 (ip), vehicle: saline with Tween-80 91 % of control | dose: 5.0 mg/kg/injection, schedule: Q04DX003 (ip), vehicle: saline with Tween-80 97 % of control | dose: 10.0 mg/kg/injection, schedule: Q01DX009 (ip), vehicle: saline with Tween-80 96 % of control | dose: 10.0 mg/kg/injection, schedule: Q04DX003 (ip), vehicle: saline with Tween-80 100 % of control

Cc1ccc(S(=O)(=O)NCl)cc1
inactive: dose: 25.0 mg/kg/injection, schedule: Q01DX009 (ip), vehicle: saline 89 % of control | dose: 50.0 mg/kg/injection, schedule: Q01DX009 (ip), vehicle: saline 94 % of control

CO/C(=N\C(=O)NC1CC(OC(=O)c2ccc(C)cc2)C(COC(=O)c2ccc(C)cc2)O1)NC(=O)c1ccc(C)cc1 (stereo not drawn)
inactive: [5] 90 % of control

O=C1CCC2(CCC(=O)O2)O1
inactive: [9] 94 % of control | dose: 200.0 mg/kg/injection, schedule: Q04DX003 (ip), vehicle: saline 100 % of control | dose: 400.0 mg/kg/injection, schedule: Q04DX003 (ip), vehicle: saline 93 % of control

CCCCCCC[CH2][Sn]1([CH2]CCCCCCC)[O]OC(c2ccccc2)[O]1 (stereo not drawn)
inactive: [8] 92 % of control

Cc1ccc(NC(=O)Oc2cc(C)c(Cl)c(C)c2Cl)c(C)c1
inactive: [3] 89 % of control | [4] 101 % of control | [6] 104 % of control

O=C(Nc1ccc(Cl)cc1[N+](=O)[O-])c1ccc2ccccc2c1O
inactive: dose: 100.0 mg/kg/injection, schedule: Q01DX001 (ip), vehicle: Klucel (hydroxypropylcellulose) (HPC) 100 % of control | dose: 200.0 mg/kg/injection, schedule: Q01DX001 (ip), vehicle: Klucel (hydroxypropylcellulose) (HPC) 105 % of control | dose: 400.0 mg/kg/injection, schedule: Q01DX001 (ip), vehicle: Klucel (hydroxypropylcellulose) (HPC) 100 % of control

CCCCCCCCSC#N
inactive: dose: 50.0 mg/kg/injection, schedule: Q01DX001 (ip), vehicle: carboxymethylcellulose (CMC) 100 % of control

CC(=C(C#N)C#N)c1ccccc1
inactive: dose: 12.5 mg/kg/injection, schedule: Q01DX009 (ip), vehicle: saline with Tween-80 92 % of control | dose: 25.0 mg/kg/injection, schedule: Q01DX009 (ip), vehicle: saline with Tween-80 89 % of control | [3] 87 % of control

COc1cc2c(cc1OC)C1CCN3C(=O)CCC3N1CC2 (stereo not drawn)
inactive: [5] 102 % of control | [7] 102 % of control | dose: 400.0 mg/kg/injection, schedule: Q04DX003 (ip), vehicle: saline with Tween-80 108 % of control

C(=C/C1CCCCC1)/C=C/C1CCCCC1
inactive: [3] 103 % of control | [4] 92 % of control | [6] 107 % of control

O=S(=O)(O)O.[N-]=C(N)/N=C(\[NH-])N.[N-]=C(N)/N=C(\[NH-])N.[N-]=C(N)NC(=[N-])N.[Rh+3]
inactive: dose: 25.0 mg/kg/injection, schedule: Q04DX003 (ip), vehicle: saline 96 % of control | [9] 100 % of control

Nc1nc(N)c2c(n1)NCN(CCc1ccc(Cl)cc1Cl)C2
inactive: dose: 0.75 mg/kg/injection, schedule: Q01DX009 (ip), vehicle: distilled water + Tween-80 100 % of control | dose: 1.5 mg/kg/injection, schedule: Q01DX009 (ip), vehicle: distilled water + Tween-80 102 % of control | dose: 3.0 mg/kg/injection, schedule: Q01DX009 (ip), vehicle: distilled water + Tween-80 100 % of control | dose: 6.0 mg/kg/injection, schedule: Q01DX009 (ip), vehicle: distilled water + Tween-80 102 % of control | dose: 12.0 mg/kg/injection, schedule: Q01DX009 (ip), vehicle: distilled water + Tween-80 96 % of control | dose: 24.0 mg/kg/injection, schedule: Q01DX009 (ip), vehicle: distilled water + Tween-80 98 % of control | dose: 37.5 mg/kg/injection, schedule: Q01DX009 (ip), vehicle: distilled water + Tween-80 96 % of control | dose: 75.0 mg/kg/injection, schedule: Q01DX009 (ip), vehicle: distilled water + Tween-80 94 % of control

Oc1ccccc1/C=N/c1nc2ccc(Cl)cc2s1.Oc1ccccc1/C=N/c1nc2ccc(Cl)cc2s1.[Zn]
inactive: dose: 25.0 mg/kg/injection, schedule: Q01DX001 (ip), vehicle: saline 96 % of control | dose: 50.0 mg/kg/injection, schedule: Q01DX001 (ip), vehicle: saline 91 % of control | dose: 100.0 mg/kg/injection, schedule: Q01DX001 (ip), vehicle: saline 87 % of control
